In experiment [1] the test system is G4 Tel (DNA, G4) AGGGTTAGGGTTAGGGTTAGGG
Description: CD melting. Conditions: K+ (concentration not restated for melting); 8 equiv. ligand; 16 μM.

Experiment [2] concerns MYC (DNA, G4) TGAGGGTGGGTAGGGTGGGTAA
Nature of the experiment: CD melting. Conditions: K+ (concentration not restated for melting); 8 equiv. ligand; 16 μM.

Experiment [3] has as its system G4 Tel (DNA, G4) AGGGTTAGGGTTAGGGTTAGGG
Nature of the experiment: fluorescence titration, ligand emission, Hill fit. To be noted: apparent, ligand 10 μM.

For experiment [4], the system named is MYC (DNA, G4) TGAGGGTGGGTAGGGTGGGTAA
Nature of the experiment: fluorescence titration, ligand emission, Hill fit. To be noted: K+ 100 mM, apparent, PBS 20 mM phosphate, pH 6.8, room temperature, ligand 10 μM.

Experiment [5] deals with KRAS (DNA, G4) AGGGCGGTGTGGGAAGAGGGAAGAGGGGGAGG
Description: fluorescence titration, ligand emission, Hill fit. Conditions: K+ 100 mM, apparent, PBS 20 mM phosphate, pH 6.8, room temperature, ligand 10 μM.

In experiment [6] the test system is ds26 (DNA, duplex) CAATCGGATCGAATTCGATCCGATTG
Nature of the experiment: fluorescence titration, ligand emission, Hill fit. Conditions: K+ 100 mM, apparent, PBS 20 mM phosphate, pH 6.8, room temperature, ligand 10 μM.

In experiment [7] the test system is MYC (DNA, G4) TGAGGGTGGGTAGGGTGGGTAA
Nature of the experiment: Hoechst 33258 fluorescent displacement. Conditions: Hoechst 33258 displaced, quenching nearly 35%; tracking lost at higher ligand.

The term ΔTm denotes the change in melting temperature against a reference sample. For `COc1ccc(-c2cc3c(cc2-c2ccncc2)c(=O)c2ccccc2n3C)cc1`, the thermal shift (ΔTm) in experiment [1] came to 1.7 °C; in experiment [2], 6.2 °C. Further, the KD in experiment [3] (K+ 100 mM, PBS 20 mM phosphate, pH 6.8, room temperature, Hill n 7.83) amounted to 2.58 ± 0.03 µM; in experiment [3] (Na+ (Tris-NaCl), Tris-NaCl buffer, room temperature, Hill n 4.66, buffer alone quenches 44%), 3.45 ± 0.05 µM; in experiment [4] (Hill n 4.68), 10.85 ± 0.30 µM; in experiment [5] (Hill n 8.07), 5.51 ± 0.079 µM; in experiment [6] (Hill n 15.27), 3.73 ± 0.02 µM.
For the compound `COc1ccc(-c2cc3c(cc2-c2cc[n+](C)cc2)c(=O)c2ccccc2n3C)cc1`, the results for the ΔTm in experiment [1] and in experiment [2] were 0.9 °C and 10.7 °C, respectively. The binding entry in experiment [7] is on record as “yes”. For the same compound, the KD worked out at 3.30 ± 0.11 µM in experiment [3] (K+ 100 mM, PBS 20 mM phosphate, pH 6.8, room temperature, Hill n 0.98); 2.08 ± 0.07 µM in experiment [3] (Na+ (Tris-NaCl), Tris-NaCl buffer, room temperature, Hill n 0.80, buffer alone quenches 31%); 1.86 ± 0.04 µM in experiment [4] (Hill n 1.33); 9.62 ± 0.70 µM in experiment [5] (Hill n 0.97); 14.95 ± 1.00 µM in experiment [6] (Hill n 0.98).

Source of the values: paper PMC12004264 (2025).
